Source: patent US20250100996A1, “HETEROCYCLOALKYL AND HETEROARYL COMPOUNDS AND PHARMACEUTICAL COMPOSITIONS THAT MODULATE IKZF2” (Plexium, Inc., priority 2021, published 2025)

Legend:
[1] = target: T1, human E3 ligase component cereblon (CRBN) (Homo sapiens, UniProt Q96SW2); assay: Cereblon (CRBN) target engagement, NanoBRET TE Intracellular E3 Ligase Assay in transfected HEK-293T cells; settings: read-out: CRBN Binding EC50
T1 construct: host or cells: HEK293T
Method: HEK293T cells were harvested ca. 75% confluent with trypsin and plated (500,000 cells/well) in a 6-well tissue culture plate in 2 mL of Dulbecco's Modified Eagle Medium (DMEM)^+10% Fetal Bovine Serum (FBS) and incubated overnight at 37° C.
The NanoLuc-CRBN fusion vector (Nluc-CRBN; Promega) contains the coding region of human E3 ligase component cereblon (CRBN) fused to the C-terminus of the NanoLuc luciferase coding region. A mixture of 10 ng Nluc-CRBN and 990 ng DDB1 Expression Vector (Promega) was added to 125 μL Opti-Minimum Essential Medium (Opti-MEM™; Thermo Fisher) along with […] P3000 reagent (Thermo Fisher) in a 1.5 mL epppendorf tube. This solution was added to Lipofectamine 3000 transfection reagent (5 μL; Thermo Fisher) in Opti-MEM (125 μL), mixed well, and incubated for 15 minutes at room temperature. The transfection mixture was added dropwise to cells and incubated overnight at 37° C., 5% CO2. Following transfection, cells were washed once with PBS, and trypsin (250 μL) was added and incubated 30-45 see to dislodge cells. Complete media (2 mL) was added to resuspend cells to form a single cell suspension. Cells were centrifuged at 320×g for 5 min at room temperature, the supernatant was removed, and the cell pellet resuspended in Opti-MEM (3 mL; wash step repeated ×2). After final resuspension in 5 mL Opti-MEM, cells were counted and resuspended at 200,000 cells/mL in Opti-MEM.
Cereblon target engagement was monitored by Bioluminescence Resonance Energy Transfer (BRET) in transfected HEK-293T cells using the NanoBRET TE Intracellular E3 Ligase Assay (Promega). Briefly, 384-well plates (white opaque plates, Corning 3574, low binding surface) were seeded with transfected HEK-293T cells (38 μL/well). 2 μL of 10 μM CRBN tracer (diluted 1:5 in Tracer Dilution Buffer) was added to each well. Plates were centrifuged at 320×g for 1 min at room temperature. Test compounds were added in a 11-point dilution series (typically 10 μM to 100 pM) using a TECAN D300e Digital Dispenser. Plates were shaken for 2 minutes on a microplate shaker to mix compounds. Plates were centrifuged at 320×g for 1 min at room temperature, and subsequently incubated for 2 hours at 37° C.
After incubation, plates were allowed to cool to room temperature for 15 minutes. 20 μL of 3× Complete NanoBRET™ Nano-Glo® Substrate plus Inhibitor Solution (Promega, 1:166 Substrate and 1:500 dilution of Extracellular NanoLuc® Inhibitor diluted in Opti-MEM) were added to each well. Plates were incubated with shaking at room temperature for 3 minutes covered with foil. Plates were read on a CLARIOstar microplate reader (BMG LabTech), measuring at 450 nm (donor emission) and 610 nm (acceptor emission). The IC50 values were determined by regression to best fit four-parameter logistic curves using GraphPad Prism.

IKZF2 (Helios) [2] = target: T2, IKZF2 (Helios) (Homo sapiens, UniProt Q9UKS7); assay: IKZF2 reporter degradation assay (HEK 293T IKZF2-mNeonGreen reporter cell line); format: cell-based; settings: HEK 293T IKZF2-mNeonGreen reporter, 24 hours incubation
T2 construct: Leu-Asp junction (codons ctcgac before the linker); mScarlet (behind P2A) (C, cleaved yes); expressed in transfected cells
T2 sequence (Q9UKS7 whole entry): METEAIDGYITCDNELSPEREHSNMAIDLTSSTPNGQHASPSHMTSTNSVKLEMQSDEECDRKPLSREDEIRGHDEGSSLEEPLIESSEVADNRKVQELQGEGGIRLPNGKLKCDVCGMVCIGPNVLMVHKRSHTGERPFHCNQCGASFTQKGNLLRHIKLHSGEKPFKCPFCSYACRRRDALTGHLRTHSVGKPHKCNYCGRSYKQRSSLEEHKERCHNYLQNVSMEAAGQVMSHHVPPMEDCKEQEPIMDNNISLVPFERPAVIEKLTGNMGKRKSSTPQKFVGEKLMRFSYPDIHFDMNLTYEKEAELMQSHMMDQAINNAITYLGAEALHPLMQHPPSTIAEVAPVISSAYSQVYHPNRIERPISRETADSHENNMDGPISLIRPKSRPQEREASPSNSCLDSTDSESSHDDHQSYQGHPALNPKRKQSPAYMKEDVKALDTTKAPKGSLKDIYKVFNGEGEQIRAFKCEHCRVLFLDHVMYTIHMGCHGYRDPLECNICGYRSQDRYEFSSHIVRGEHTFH
T2 sequence (Q96SW2 whole entry, further chain): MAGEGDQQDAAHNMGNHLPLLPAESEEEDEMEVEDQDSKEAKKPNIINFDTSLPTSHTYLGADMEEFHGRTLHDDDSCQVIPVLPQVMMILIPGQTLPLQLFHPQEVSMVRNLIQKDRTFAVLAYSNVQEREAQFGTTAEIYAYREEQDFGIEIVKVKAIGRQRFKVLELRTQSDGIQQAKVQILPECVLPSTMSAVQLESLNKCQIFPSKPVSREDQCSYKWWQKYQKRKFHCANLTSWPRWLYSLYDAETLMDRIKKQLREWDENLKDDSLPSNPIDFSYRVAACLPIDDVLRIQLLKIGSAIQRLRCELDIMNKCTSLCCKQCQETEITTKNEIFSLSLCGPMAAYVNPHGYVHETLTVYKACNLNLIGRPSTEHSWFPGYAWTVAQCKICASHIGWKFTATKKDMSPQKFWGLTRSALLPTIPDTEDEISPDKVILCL
T2 sequence (Q16531 whole entry partner): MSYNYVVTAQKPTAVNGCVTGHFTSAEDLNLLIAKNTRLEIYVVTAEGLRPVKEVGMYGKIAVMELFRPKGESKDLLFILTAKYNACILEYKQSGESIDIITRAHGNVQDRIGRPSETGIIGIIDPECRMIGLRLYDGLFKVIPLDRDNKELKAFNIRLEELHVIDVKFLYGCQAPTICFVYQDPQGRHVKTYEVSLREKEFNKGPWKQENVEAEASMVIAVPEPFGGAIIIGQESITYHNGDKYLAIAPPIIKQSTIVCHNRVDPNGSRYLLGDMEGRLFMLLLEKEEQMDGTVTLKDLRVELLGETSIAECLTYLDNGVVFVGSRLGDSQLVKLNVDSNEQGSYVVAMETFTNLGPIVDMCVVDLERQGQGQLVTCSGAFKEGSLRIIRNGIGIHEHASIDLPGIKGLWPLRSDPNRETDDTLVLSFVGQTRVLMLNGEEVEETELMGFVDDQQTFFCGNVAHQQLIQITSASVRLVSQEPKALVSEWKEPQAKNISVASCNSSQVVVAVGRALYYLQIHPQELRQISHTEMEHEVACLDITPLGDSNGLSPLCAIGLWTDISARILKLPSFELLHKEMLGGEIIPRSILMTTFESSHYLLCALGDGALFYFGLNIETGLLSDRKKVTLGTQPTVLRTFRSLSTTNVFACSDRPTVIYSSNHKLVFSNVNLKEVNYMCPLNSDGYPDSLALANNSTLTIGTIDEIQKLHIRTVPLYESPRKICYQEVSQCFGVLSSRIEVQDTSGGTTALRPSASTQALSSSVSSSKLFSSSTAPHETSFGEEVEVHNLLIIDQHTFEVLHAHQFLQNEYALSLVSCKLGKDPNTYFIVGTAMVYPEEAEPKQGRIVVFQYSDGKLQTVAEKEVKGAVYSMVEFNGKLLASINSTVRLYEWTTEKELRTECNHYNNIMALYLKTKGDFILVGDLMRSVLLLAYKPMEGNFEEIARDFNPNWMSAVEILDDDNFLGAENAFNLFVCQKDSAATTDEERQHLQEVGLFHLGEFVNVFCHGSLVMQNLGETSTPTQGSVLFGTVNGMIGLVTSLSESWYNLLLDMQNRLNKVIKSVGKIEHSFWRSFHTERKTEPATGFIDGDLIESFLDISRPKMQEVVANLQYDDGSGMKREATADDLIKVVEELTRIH
From the text: (§1) Polycistronic plasmids were constructed for the mammalian expression of fluorescent reporter fusions of human transcription factors IKZF1 (Ikaros), IKZF2 (Helios), and IKZF3 (Aiolos). The respective protein sequences had their C-terminal end joined to a GGGGS linker repeated three times followed by mNeonGreen, P2A sequence, and mScarlet. The DNA sequences of the open reading frames are as follows:
(§2) IKZF1, IKZF2, and IKZF3 constructs were cloned into the UCOE Hygromycin expression vectors (Millipore Sigma). Reporter constructs were transfected using cationic lipid reagents into adherent HEK 293T cells and stable integrants were selected by treatment with 200 μg/mL hygromycin B. Clonal populations were obtained from the population of stable integrants either by limiting dilution or fluorescence activated cell sorting.
(§3) The clonal stable cell lines were maintained under constant 200 μg/mL hygromycin B selection while being passaged for use in the degradation assays. […] The fluorescence intensity of the IKZF1/2/3-mNeonGreen (FITC channel) and mScarlet (PE channel) reporters were routinely analyzed by flow cytometry to confirm consistent expression levels between experiments.
(§4) The IKZF1/IKZF2/IKZF3 degradation assays were carried out by harvesting the HEK 293T reporter cell lines and resuspending the cells in media formulated for reduced background fluorescence (FluoroBrite; Thermo Fisher). The respective cell lines were seeded at a density of 4000 cells/well into black-walled 384-well optical grade assay tissue culture plates. The cells were incubated overnight at 37° C. to allow for attachment to the assay plate. Dilutions of the compounds were prepared in DMSO from 10 mM compound stocks. The assay plates were treated with appropriate concentrations of the compounds by dispensing the DMSO dilutions in quadruplicate wells with an upper limit of 0.5% final DMSO.
(§5) After 24 hours incubation with the compounds, the assay plates were imaged on an ImageXpress Pico microscopy system (cells maintained at 37° C. during imaging) to obtain the fluorescent readouts. The assay plates were imaged in the FITC and Tetramethylrhodamine (TRITC) channels to obtain the mNeonGreen fluorescence intensity (reporter degradation data) and mScarlet fluorescence intensity (for cell segmentation). 293T-IKZF1 and 293T-IKZF3 reporter cell lines were imaged with exposures of 500 milliseconds (ms) for both FITC and TRITC channels, while the 293T-IKZF2 reporter cell line was imaged with exposures of 1000 ms for FITC and 1250 ms for TRITC. The resulting data was analyzed with Cell Reporter Xpress software using the 2-channel cell scoring analysis with a “percent positive” readout. The TRITC channel was selected for the “nuclei” segmentation with a threshold of 20 while the FITC channel was selected for the “Marker 1” segmentation and a threshold of 100 for the IKZF1 and IKZF3 reporter lines. […] The minimum segmentation width was set to 6 micrometers and the maximum segmentation width was set to 15 micrometers for all cell lines. The DC50 calculations were determined by regression to best fit four-parameter logistic curves using GraphPad Prism.

IKZF2 (Helios) [3] = target: T3, IKZF2 (Helios) (Homo sapiens, UniProt Q96SW2+Q9UKS7); assay: as above; format: cell-based; settings: @ 1 μM, HEK 293T IKZF2-mNeonGreen reporter, 24 hours incubation; for inhibition at 1 µM: HEK-293T, 24 h
T3 construct: Leu-Asp junction (codons ctcgac before the linker); mScarlet (behind P2A) (C, cleaved yes); expressed in transfected cells
T3 sequence (Q9UKS7 whole entry): as the sequence (Q9UKS7 whole entry) above
T3 sequence (Q96SW2 whole entry): as the sequence (Q96SW2 whole entry, further chain) above
T3 sequence (Q16531 whole entry partner): as the sequence (Q16531 whole entry partner) above
From the text: as §1, §2, §3, §4, §5

IKZF3 (Aiolos) = target: T4, IKZF3 (Aiolos) (Homo sapiens, UniProt Q9UKT9); assay: IKZF3 reporter degradation assay (HEK 293T IKZF3-mNeonGreen reporter cell line); format: cell-based; settings: HEK 293T IKZF3-mNeonGreen reporter, 24 hours incubation
T4 construct: Leu-Asp junction (codons ctcgac before the linker); mScarlet (behind P2A) (C, cleaved yes); expressed in transfected cells
T4 sequence (Q96SW2 whole entry partner): as the sequence (Q96SW2 whole entry, further chain) above
T4 sequence (Q16531 whole entry partner): as the sequence (Q16531 whole entry partner) above
T4 sequence (Q9UKT9 whole entry): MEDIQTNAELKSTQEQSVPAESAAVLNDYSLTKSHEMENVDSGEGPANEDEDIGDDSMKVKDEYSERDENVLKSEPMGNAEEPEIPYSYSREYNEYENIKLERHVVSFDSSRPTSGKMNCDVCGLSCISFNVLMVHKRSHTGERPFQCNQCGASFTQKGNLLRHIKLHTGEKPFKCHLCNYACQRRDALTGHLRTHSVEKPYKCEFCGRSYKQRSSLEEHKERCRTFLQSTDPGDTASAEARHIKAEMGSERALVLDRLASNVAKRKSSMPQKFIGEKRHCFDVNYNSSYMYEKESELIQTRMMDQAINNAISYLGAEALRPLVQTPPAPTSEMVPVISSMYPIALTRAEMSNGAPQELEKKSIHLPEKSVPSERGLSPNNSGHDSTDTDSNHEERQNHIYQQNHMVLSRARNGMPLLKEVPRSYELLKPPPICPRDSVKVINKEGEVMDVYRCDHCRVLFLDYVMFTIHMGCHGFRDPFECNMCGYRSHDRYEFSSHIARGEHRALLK
From the text: as §1, §2, §3, §4, §5

T1 sequence (Q96SW2 whole entry): as the sequence (Q96SW2 whole entry, further chain) above
T1 sequence (Q16531 whole entry partner): as the sequence (Q16531 whole entry partner) above

Structure (SMILES)	EC50 [1]	DC50 (IKZF2 (Helios) [2])	IKZF2 % Degradation @ 1 μM (IKZF2 (Helios) [3])	DC50 (IKZF3 (Aiolos))	inhibition at 1 µM (IKZF2 (Helios) [3])	IKZF3 % Degradation @ 1 μM (IKZF3 (Aiolos); @ 1 μM)	inhibition at 1 µM (IKZF3 (Aiolos); HEK-293T, 24 h, @ 1 μM)
O=C1CCC(N2Cc3cc(O[C@H]4CCCC[C@@H]4N4CC(c5cncc(Cl)c5)C4)ccc3C2=O)C(=O)N1 (single isomer, unassigned) [Compound 117-B]	21 nM	25 nM	68.4%	> 30000 nM	–	–	–
O=C1CCC(N2Cc3cc(OC4CCCCC4N4CC(C(=O)N5CCCCC5)C4)ccc3C2=O)C(=O)N1 (single isomer, unassigned) [Compound 22-A, 3-(1-oxo-5-((2-(3-(piperidine-1-carbonyl)azetidin-1-yl)cyclohexyl)oxy)isoindolin-2-yl)piperidine-2,6-dione]	31 nM	11 nM	–	> 30000 nM	75.9%	–	–
O=C1CCC(N2Cc3cc(O[C@H]4CCCC[C@H]4N4CC(c5ccncc5)C4)ccc3C2=O)C(=O)N1 (single isomer, unassigned) [Compound 136-B]	34 nM	30 nM	61.4%	> 30000 nM	–	–	–
Cc1cnccc1C1CN([C@H]2CCCC[C@@H]2Oc2ccc3c(c2)CN(C2CCC(=O)NC2=O)C3=O)C1 (single isomer, unassigned) [Compound 112-B]	20 nM	12 nM	–	> 30000 nM	67.1%	–	–
O=C1CCC(N2Cc3cc(O[C@H]4CCCC[C@@H]4N4CC(c5ncc(Br)cn5)C4)ccc3C2=O)C(=O)N1 (single isomer, unassigned) [Compound 108-B]	6 nM	6 nM	–	> 30000 nM	74.6%	–	–
O=C1CCC(N2Cc3cc(O[C@@H]4CCCC[C@H]4N4CC(c5ccc(C(F)(F)F)cn5)C4)ccc3C2=O)C(=O)N1 (single isomer, unassigned) [Compound 129-B]	38 nM	20 nM	42.4%	> 30000 nM	–	–	–
O=C1CCC(N2Cc3cc(O[C@H]4CCCC[C@@H]4N4CC(c5ncc(C(F)(F)F)cn5)C4)ccc3C2=O)C(=O)N1 (single isomer, unassigned) [Compound 123-B]	1 nM	0.1 nM	69.6%	> 30000 nM	–	–	–
O=C1CCC(N2Cc3cc(OC4CCCCC4N4CC(c5cccnn5)C4)ccc3C2=O)C(=O)N1 (stereo not shown) [Compound 142-B, 3-(1-oxo-5-((2-(3-(pyridazin-3-yl)azetidin-1-yl)cyclohexyl)oxy)isoindolin-2-yl)piperidine-2,6-dione]	167 nM	605 nM	–	> 30000 nM	31.5%	–	–
O=C1CCC(N2Cc3cc(O[C@H]4CCCC[C@@H]4N4CC(c5ncncc5Cl)C4)ccc3C2=O)C(=O)N1 (single isomer, unassigned) [Compound 92-B]	12 nM	7 nM	–	> 30000 nM	81.7%	–	–
O=C1CCC(N2Cc3cc(O[C@H]4CCCC[C@@H]4N4CC(c5ccc(C(F)(F)F)nc5)C4)ccc3C2=O)C(=O)N1 (single isomer, unassigned) [Compound 127-B]	26 nM	6 nM	95.4%	63.3 nM	–	39%	–
O=C1CCC(N2Cc3cc(O[C@@H]4CCCC[C@@H]4N4CC(c5ccc6ccccc6n5)C4)ccc3C2=O)C(=O)N1 (mixture of isomers) [Compound 146-B, Rac-3-(1-oxo-5-(((cis)-2-(3-(quinolin-2-yl)azetidin-1-yl)cyclohexyl)oxy)isoindolin-2-yl)piperidine-2,6-dione]	12 nM	7 nM	–	> 30000 nM	74.9%	–	–
O=C1CCC(N2Cc3cc(O[C@H]4CCCC[C@@H]4N4CC(c5ncc(Cl)cn5)C4)ccc3C2=O)C(=O)N1 (single isomer, unassigned) [Compound 111-B]	7 nM	4 nM	–	> 30000 nM	76%	–	–
O=C1CCC(N2Cc3cc(O[C@H]4CCCC[C@@H]4N4CC(c5ccncc5Cl)C4)ccc3C2=O)C(=O)N1 (single isomer, unassigned) [Compound 95-B]	30 nM	23 nM	–	> 30000 nM	77.8%	–	–
O=C1CCC(N2Cc3cc(O[C@H]4CCCC[C@@H]4N4CC(c5ccc(C(F)(F)F)cn5)C4)ccc3C2=O)C(=O)N1 (single isomer, unassigned) [Compound 130-B]	10 nM	5 nM	–	44.1 nM	94.8%	–	37.4%
O=C1CCC(N2Cc3cc(O[C@H]4CCCC[C@@H]4N4CC(c5ncc(C(F)(F)F)cn5)C4)ccc3C2=O)C(=O)N1 (single isomer, unassigned) [Compound 120-B]	5 nM	4 nM	–	> 30000 nM	69.9%	–	–
O=C1CCC(N2Cc3cc(O[C@H]4CCCC[C@@H]4N4CC(c5ncncc5Cl)C4)ccc3C2=O)C(=O)N1 (single isomer, unassigned) [Compound 93-B]	64 nM	21 nM	78%	> 30000 nM	–	–	–
O=C1CCC(N2Cc3cc(O[C@@H]4CCCC[C@@H]4N4CC(c5cc(Cl)ccn5)C4)ccc3C2=O)C(=O)N1 (mixture of isomers) [Compound 165-B, Rac-3-(5-(((cis)-2-(3-(4-chloropyridin-2-yl)azetidin-1-yl)cyclohexyl)oxy)-1-oxoisoindolin-2-yl)piperidine-2,6-dione]	13 nM	9 nM	–	> 30000 nM	58.6%	–	–
